# Test results as given in ChEMBL document CHEMBL1770080, “Diamide amino-imidazoles: a novel series of γ-secretase inhibitors for the treatment of Alzheimer's disease” (Bioorg Med Chem Lett, 2011).
# Calls of active or inactive are those of the source. No cut-off for these calls is given here.
# Columns and labels:
# [1] = species: Mus musculus; experiment: Antialzheimer activity in heterozygous PDAPP transgenic mouse overexpressing APP V717F mutant assessed as reduction of total amyloid beta level in brain; assay type: functional; details: read-out: MED
# [2] = system: Cavia porcellus; experiment: Antialzheimer activity in guinea pig assessed as reduction of total amyloid beta level in brain at 10 mg/kg, sc after 3 hrs by DELFIA-based ELISA; assay type: functional
# [3] = Inhibition of gamma secretase-mediated notch processing in C57BL/6 mouse fetal thymic organ cultures assessed as reduction of B and T-cell populations after […] by FACS analysis
# [4] = system: Cavia porcellus; experiment: Antialzheimer activity in sc dosed guinea pig assessed as reduction of total amyloid beta level in brain after 3 hrs by DELFIA-based ELISA; assay type: functional
# [5] = system: Cavia porcellus; experiment: Antialzheimer activity in guinea pig assessed as reduction of total amyloid beta level in plasma at 3.2 mg/kg, sc after 3 hrs by DELFIA-based ELISA; assay type: functional, organism-based; design: dose 3.2 mg/kg
# [6] = system: Cavia porcellus; experiment: Antialzheimer activity in guinea pig assessed as reduction of total amyloid beta level in plasma at 1 to 32 mg/kg, sc after 3 to 7 hrs by DELFIA-based ELISA; assay type: functional, organism-based
# [7] = system: Cavia porcellus; experiment: Antialzheimer activity in guinea pig assessed as reduction of total amyloid beta level in cerebral spinal fluid at 1 to 32 mg/kg, sc after 3 to 7 hrs by DELFIA-based ELISA; assay type: functional, organism-based
# [8] = system: Cavia porcellus; experiment: Antialzheimer activity in guinea pig assessed as reduction of total amyloid beta level in brain at 1 to 32 mg/kg, sc after 3 to 7 hrs by DELFIA-based ELISA; assay type: functional, organism-based
# [9] = system: Cavia porcellus; experiment: Antialzheimer activity in guinea pig assessed as reduction of total amyloid beta level in plasma at 1 to 32 mg/kg, sc after 1 hr by DELFIA-based ELISA; assay type: functional, organism-based
# [10] = system: Cavia porcellus; experiment: Antialzheimer activity in guinea pig assessed as reduction of total amyloid beta level in cerebral spinal fluid at 1 to 32 mg/kg, sc after 1 hr by DELFIA-based ELISA; assay type: functional, organism-based
# [11] = Inhibition of gamma-secretase in guinea pig brain; design: species or system Cavia porcellus
# [12] = system: Cavia porcellus; experiment: Antialzheimer activity in guinea pig assessed as reduction of total amyloid beta level in plasma at 1 to 32 mg/kg, sc after 3 hrs by DELFIA-based ELISA; assay type: functional; design: scale not given: the % may be the effect or the level left; details: dose mg/kg 1-32; route subcutaneous
# [13] = system: Cavia porcellus; experiment: Antialzheimer activity in guinea pig assessed as reduction of total amyloid beta level in brain at 5 mg/kg, sc administered 3 doses over 24 hrs measured after 3 hrs last post dose by DELFIA-based ELISA; assay type: functional; design: scale not given: the % may be the effect or the level left; details: route subcutaneous
# [14] = system: Cavia porcellus; experiment: Antialzheimer activity in guinea pig assessed as reduction of total amyloid beta level in brain at 1 to 32 mg/kg, sc after 1 hr by DELFIA-based ELISA; assay type: functional, organism-based
compound,measurement,setting,value
C[C@H](NC(=O)Cc1cc(F)cc(F)c1)C(=O)N[C@H](C(=O)OC(C)(C)C)c1ccccc1,minimal effective dose,[1],30 mg/kg
CC(C)C[C@H](NC(=O)Cc1cc(F)cc(F)c1)C(=O)Nc1cn(C(C)(C)CN2CCCC2)cn1,Activity,[2],inactive
C[C@H](NC(=O)Cc1cc(F)cc(F)c1)C(=O)Nc1cn(C(C)(C)CN2CCCC2)cn1,Activity,[2],inactive
CCC[C@H](NC(=O)Cc1cc(F)cc(F)c1)C(=O)Nc1cn(C(CC)CC)cn1,Activity,[2]; route subcutaneous,<10%
CCC[C@H](NC(=O)Cc1cc(F)cc(F)c1)C(=O)Nc1cn(C(C)(C)CNCc2ccccc2)cn1,EC50,[3],4.3 µM
CCC[C@H](NC(=O)Cc1cc(F)cc(F)c1)C(=O)Nc1cn(C(C)(C)CNC(C)C)cn1,EC50,[3],> 10 µM
CCC[C@H](NC(=O)Cc1cc(F)cc(F)c1)C(=O)Nc1cn(C(C)(C)CC(=O)OC)cn1,Activity,[2]; route subcutaneous,32%
CCC[C@H](NC(=O)Cc1cc(F)cc(F)c1)C(=O)Nc1cn(C(C)(C)CNC2CCC(O)CC2)cn1 (some centres undefined),EC50,[3],> 10 µM
CCC[C@H](NC(=O)Cc1cc(F)cc(F)c1)C(=O)Nc1cn(C(C)(C)CN2CCCC2)cn1,Activity,[2]; route subcutaneous,43%
CCC[C@H](NC(=O)Cc1cc(F)cc(F)c1)C(=O)Nc1cn(C(C)(C)CN(C)C)cn1,EC50,[3],0.7 µM
CCC[C@H](NC(=O)Cc1cc(F)cc(F)c1)C(=O)Nc1cn(C(C)(C)CNCC2CCOCC2)cn1,EC50,[3],4 µM
CCC[C@H](NC(=O)Cc1cc(F)cc(F)c1)C(=O)Nc1cn(C(C)(C)CN2CCOCC2)cn1,EC50,[3],0.1 µM
CCC[C@H](NC(=O)Cc1cc(F)cc(F)c1)C(=O)Nc1cn(C(C)(C)CNCC(C)(C)C)cn1,ED50,[4],7.3 mg/kg
same,Activity,[5],Active
same,Activity,[6],Active
same,Activity,[7],Active
same,Activity,[8],Active
same,Activity,[9],Active
same,Activity,[10],inactive
same,IC50,[11],0.024 µM
same,Activity,[12],60%
same,EC50,[3],1.2 µM
same,Activity,[13],50%
same,Activity,[14],Active
